In PubChem BioAssay AID270 (DTP/NCI, 2004):
Several values for one entry are separate records, joined by “and”; a condition that tells them apart may be missing. Equal entries are not always repeated. Records with an inconclusive call do not appear.

System: BDF1 mice, s.c. Lewis lung carcinoma, T/C %
Assay: NCI In Vivo Anticancer Drug Screen. Data for tumor model Lewis Lung Carcinoma (subcutaneous) in B6D2F1 (BDF1) mice
Description: The antitumor activity of compounds was measured in mice bearing transplantable tumors. Survival or tumor size were measured and the results are expressed as the measurement made in the treated group (T) divided by the measurement made in the vehicle treated control group (C). The tumor model used in this assay is Lewis Lung Carcinoma (subcutaneous) in B6D2F1 (BDF1) mice

[1] = endpoint: mean tumor weight, dose: 0.25 mg/kg/injection, schedule: Q01DX011 (ip), vehicle: water, higher = larger tumour

## CC(O)CC1CCCN1C (configuration not stated)
endpoint: mean tumor weight, dose: 50.0 mg/kg/injection, schedule: Q01DX011 (ip), vehicle: saline, higher = larger tumour
  T/C: 208 % of control
endpoint: mean tumor weight, dose: 100.0 mg/kg/injection, schedule: Q01DX011 (ip), vehicle: saline, higher = larger tumour
  T/C: 103 % of control
endpoint: mean tumor weight, dose: 200.0 mg/kg/injection, schedule: Q01DX011 (ip), vehicle: saline, higher = larger tumour
  T/C: 179 % of control

## Nc1nc(=S)c2[nH]c(N=Nc3ccc(S(=O)(=O)Nc4ncccn4)cc3)nc2[nH]1
endpoint: median survival time, dose: 0.78 mg/kg/injection, schedule: Q01DX009 (ip), vehicle: Klucel (hydroxypropylcellulose) (HPC), higher = longer survival
  T/C: 99 % of control
endpoint: median survival time, dose: 1.56 mg/kg/injection, schedule: Q01DX009 (ip), vehicle: Klucel (hydroxypropylcellulose) (HPC), higher = longer survival
  T/C: 101 % of control
endpoint: median survival time, dose: 3.12 mg/kg/injection, schedule: Q01DX009 (ip), vehicle: Klucel (hydroxypropylcellulose) (HPC), higher = longer survival
  T/C: 95 % of control
endpoint: median survival time, dose: 6.25 mg/kg/injection, schedule: Q01DX009 (ip), vehicle: Klucel (hydroxypropylcellulose) (HPC), higher = longer survival
  T/C: 105 % of control

## COc1cc([C@@H]2c3cc4c(cc3[C@@H](OC3OC5COC(C)OC5C(O)C3O)[C@H]3COC(=O)[C@H]23)OCO4)cc(OC)c1O (some centres not stated)
endpoint: median survival time, dose: 4.0 mg/kg/injection, schedule: Q01DX009 (ip), vehicle: saline, higher = longer survival
  T/C: 124 % of control
endpoint: median survival time, dose: 20.0 mg/kg/injection, schedule: Q04DX003 (ip), vehicle: saline, higher = longer survival
  T/C: 107 % of control
endpoint: median survival time, dose: 20.0 mg/kg/injection, schedule: Q04DX003 (sc), vehicle: saline, higher = longer survival
  T/C: 124 % of control
endpoint: median survival time, dose: 80.0 mg/kg/injection, schedule: Q04DX003 (ip), vehicle: saline, higher = longer survival
  T/C: 91 % of control

## S=c1nc[nH]c2c1ncn2C1CCCO1 (configuration not stated)
endpoint: mean tumor weight, dose: 12.5 mg/kg/injection, schedule: Q01DX011 (ip), vehicle: other, higher = larger tumour
  T/C: 36 % of control
endpoint: mean tumor weight, dose: 25.0 mg/kg/injection, schedule: Q01DX011 (ip), vehicle: other, higher = larger tumour
  T/C: 86 % of control
endpoint: mean tumor weight, dose: 50.0 mg/kg/injection, schedule: Q01DX011 (ip), vehicle: other, higher = larger tumour
  T/C: 91 % of control
endpoint: mean tumor weight, dose: 100.0 mg/kg/injection, schedule: Q01DX011 (ip), vehicle: other, higher = larger tumour
  T/C: 67 % of control

## C=C(C)[C@H]1Cc2c(ccc3c2O[C@@H]2COc4cc(OC)c(OC)cc4[C@@H]2C3=O)O1
[1]
  T/C: 76 % of control
endpoint: mean tumor weight, dose: 0.5 mg/kg/injection, schedule: Q01DX011 (ip), vehicle: water, higher = larger tumour
  T/C: 65 % of control
endpoint: mean tumor weight, dose: 1.0 mg/kg/injection, schedule: Q01DX011 (ip), vehicle: water, higher = larger tumour
  T/C: 60 % of control

## COc1cc2nccc3c4ccccc4n(c1=O)c23
endpoint: median survival time, dose: 50.0 mg/kg/injection, schedule: Q01DX009 (ip), vehicle: Klucel (hydroxypropylcellulose) (HPC), higher = longer survival
  T/C: 114 % of control
endpoint: median survival time, dose: 100.0 mg/kg/injection, schedule: Q01DX009 (ip), vehicle: Klucel (hydroxypropylcellulose) (HPC), higher = longer survival
  T/C: 110 % of control
endpoint: median survival time, dose: 200.0 mg/kg/injection, schedule: Q01DX009 (ip), vehicle: Klucel (hydroxypropylcellulose) (HPC), higher = longer survival
  T/C: 120 % of control

## NC1(C(=O)O)CCCC1
endpoint: mean tumor weight, dose: 30.0 mg/kg/injection, schedule: Q01DX011 (ip), vehicle: saline, higher = larger tumour
  T/C: 38 % of control and 61 % of control
endpoint: mean tumor weight, dose: 60.0 mg/kg/injection, schedule: Q01DX011 (ip), vehicle: saline, higher = larger tumour
  T/C: 25 % of control and 30 % of control
endpoint: mean tumor weight, dose: 120.0 mg/kg/injection, schedule: Q01DX011 (ip), vehicle: saline, higher = larger tumour
  T/C: 8 % of control
endpoint: median survival time, dose: 1.6 mg/kg/injection, schedule: Q01DX009 (ip), vehicle: carboxymethylcellulose (CMC), higher = longer survival
  T/C: 96 % of control
endpoint: median survival time, dose: 6.25 mg/kg/injection, schedule: Q01DX009 (ip), vehicle: carboxymethylcellulose (CMC), higher = longer survival
  T/C: 123 % of control

## CSCS(=O)C[C@H](CO)NC(=O)/C=C/c1c(C)[nH]c(=O)[nH]c1=O (some centres not stated)
endpoint: median survival time, dose: 0.08 mg/kg/injection, schedule: Q01DX009 (ip), vehicle: water, higher = longer survival
  T/C: 94 % of control
endpoint: median survival time, dose: 0.15 mg/kg/injection, schedule: Q01DX009 (ip), vehicle: water, higher = longer survival
  T/C: 109 % of control
endpoint: median survival time, dose: 0.3 mg/kg/injection, schedule: Q01DX009 (ip), vehicle: water, higher = longer survival
  T/C: 97 % of control

## CC1=CC2=C(C=O)C(=O)[C@](C)(O)[C@@H](O)C2=CO1
endpoint: median survival time, dose: 1.56 mg/kg/injection, schedule: Q01DX009 (ip), vehicle: saline with Tween-80, higher = longer survival
  T/C: 115 % of control
endpoint: median survival time, dose: 3.13 mg/kg/injection, schedule: Q01DX009 (ip), vehicle: saline with Tween-80, higher = longer survival
  T/C: 153 % of control
endpoint: median survival time, dose: 6.25 mg/kg/injection, schedule: Q01DX009 (ip), vehicle: saline with Tween-80, higher = longer survival
  T/C: 89 % of control and 120 % of control
endpoint: median survival time, dose: 12.5 mg/kg/injection, schedule: Q01DX009 (ip), vehicle: saline with Tween-80, higher = longer survival
  T/C: 109 % of control
endpoint: median survival time, dose: 25.0 mg/kg/injection, schedule: Q01DX009 (ip), vehicle: saline with Tween-80, higher = longer survival
  T/C: 106 % of control

## N=[N+]=CC(=O)CCC(NC(=O)C(CCC(=O)C=[N+]=N)NC(=O)CCC(N)C(=O)O)C(=O)O (configuration not stated)
endpoint: mean tumor weight, dose: 0.06 mg/kg/injection, schedule: Q01DX011 (ip), vehicle: water, higher = larger tumour
  T/C: 103 % of control
endpoint: mean tumor weight, dose: 0.12 mg/kg/injection, schedule: Q01DX011 (ip), vehicle: water, higher = larger tumour
  T/C: 34 % of control
[1]
  T/C: 17 % of control
endpoint: median survival time, dose: 0.1 mg/kg/injection, schedule: Q01DX011 (ip), vehicle: other, higher = longer survival
  T/C: 120 % of control
endpoint: median survival time, dose: 0.2 mg/kg/injection, schedule: Q01DX011 (ip), vehicle: other, higher = longer survival
  T/C: 89 % of control
endpoint: median survival time, dose: 0.4 mg/kg/injection, schedule: Q01DX011 (ip), vehicle: other, higher = longer survival
  T/C: 116 % of control
endpoint: median survival time, dose: 0.8 mg/kg/injection, schedule: Q01DX011 (ip), vehicle: other, higher = longer survival
  T/C: 107 % of control
endpoint: median survival time, dose: 1.6 mg/kg/injection, schedule: Q01DX011 (ip), vehicle: other, higher = longer survival
  T/C: 101 % of control
